Like-named read-outs stand apart in the source and are kept apart here.
Columns and labels:
PGD2 receptor = molecular target: T1, PGD2 receptor (Bos taurus, UniProt A5D7K8); experiment: Competitive inhibition activity test to PGD2 receptor, cAMP production in EBTr[NBL-4] cells; type: cell-based, bovine; details: 37 degree C., 15 minutes
T1 construct: EBTr[NBL-4] cells derived from embryonic bovine trachea; endogenous in cells; host or cells: EBTr[NBL-4] cells (embryonic bovine trachea)
T1 sequence (A5D7K8 1-361): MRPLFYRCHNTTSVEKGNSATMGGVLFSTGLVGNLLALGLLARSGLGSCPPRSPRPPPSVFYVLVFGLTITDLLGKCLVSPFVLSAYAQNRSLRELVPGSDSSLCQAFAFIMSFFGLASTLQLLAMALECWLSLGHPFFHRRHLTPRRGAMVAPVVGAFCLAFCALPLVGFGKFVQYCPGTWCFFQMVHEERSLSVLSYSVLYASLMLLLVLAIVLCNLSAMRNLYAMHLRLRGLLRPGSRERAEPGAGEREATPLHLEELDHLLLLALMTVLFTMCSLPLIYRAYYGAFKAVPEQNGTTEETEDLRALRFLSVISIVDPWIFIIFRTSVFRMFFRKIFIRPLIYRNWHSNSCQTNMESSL
Method: EBTr[NBL-4] cells derived from embryonic bovine trachea were seeded on a micro-plate with 96 wells, at 8000 cells/well, and used for the experiment after culturing for 2 days in the presence of MEM culture medium (containing 10% calf cerum). The experiment was conducted in a MEM culture medium containing 500 μM IBMX and 10% calf serum. 100 μl of culture medium containing PGD2 and the test compound was added to initiate the reaction, and after reaction at 37 degree C. for 15 minutes, the culture medium was removed and ice-chilled PBS was added to terminate the reaction. Further, after removal of PBS, 200 μl of cytolytic agent (Lysis reagent 1) in cAMP enzymeImmunoassay system (Amersham) was added and cytolysis was brought about by shaking at room temperature for 10 minutes. The quantity of cAMP in the cytolytic agent was determined in accordance with the method described in the cAMP enzymeImmunoassay system. The inhibition activity of the test compound was calculated with the pA2 value as an indicator using the IC50 value when cAMP production quantity in the presence of 100 nM, 1 μM PGD2 was taken as 100%.

[1] = molecular target: T2, PGD2 receptor (DP receptor) (Homo sapiens, UniProt Q13258); experiment: PGD2 receptor (DP receptor) binding test, [3H]PGD2, human platelet membrane fraction; details: 5 nM [3H]PGD2, 4 degree C., 90 minutes, read-out: Inhibition constant Ki
T2 construct: twice centrifuged at 105,000×g for 20 minutes at 4 degree C. to obtain platelet membrane fraction as precipitate; from tissue; host or cells: human platelet membrane fraction from blood of a healthy adult
T2 sequence (Q13258 1-359): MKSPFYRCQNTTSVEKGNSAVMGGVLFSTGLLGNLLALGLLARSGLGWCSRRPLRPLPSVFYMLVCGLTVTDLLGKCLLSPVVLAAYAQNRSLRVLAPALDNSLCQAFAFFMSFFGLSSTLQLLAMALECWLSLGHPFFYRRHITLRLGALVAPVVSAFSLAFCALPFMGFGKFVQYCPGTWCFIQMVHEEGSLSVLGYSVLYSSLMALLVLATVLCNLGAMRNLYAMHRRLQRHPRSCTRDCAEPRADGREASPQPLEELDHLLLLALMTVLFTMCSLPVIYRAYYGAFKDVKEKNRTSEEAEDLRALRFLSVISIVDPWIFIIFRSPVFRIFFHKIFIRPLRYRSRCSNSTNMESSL
Method: The test was conducted in accordance with the method of TsurI et al. (J. Med. Chem., 40, 3504-3507 (1997)).
(1) Preparation of Human Platelet Membrane Fraction
A sample of blood drawn from a healthy adult using a plastic syringe was placed in a plastic test tube containing 3.8% sodium citrate, and after gently mixing by overturning centrifuged at room temperature at 180×g for 20 minutes to obtain platelet-rich plasma (PRP) as supernatant. The PRP was further centrifuged at room temperature at 800×g for 20 minutes to obtain platelet as precipitate. […]
The human platelet membrane fraction (0.1 mg), 5 nM [3H]PGD2, and each compound was added to 200 μl of binding reaction solution (50 mM Tris/HCl (pH 7.4), 1 mM EDTA, 10 mM MgCl2), and reaction was conducted at 4 degree C. for 90 minutes. After reaction, the mixture was filtered under vacuum using a glass fiber filter paper, and after rinsing several times with cold physiological sodium chloride solution, residual radio activity on the filter paper was measured. The quantity of nonspecific binding in the present experiment was calculated as the quantity of radioactivity when a similar experiment was conducted in the presence of 10 μM PGD2, and the quantity of specific binding was given as the value of quantity of total binding minus quantity of nonspecific binding. […]

[2] = Competitive inhibition activity IC50, PGD2 (100 nM), PGD2 (100 nM) as printed, read-out: Competitive inhibition activity IC50, PGD1 (100 nM)
[3] = PGD2 (1 μM), read-out: Competitive inhibition activity IC50, PGD2 (1 μM)

Structure (SMILES) | IC50 (PGD2 receptor; [2]) [nM] | IC50 (PGD2 receptor; [3]) [nM] | Ki [1] [nM]
O=C(O)Cc1cccc(CC[C@@H]2[C@@H](C#C[C@@H](O)C3CCCCC3)[C@H](O)C[C@H]2Cl)c1 [Compound 38, 9-Deoxy-9β-chloro-3,4,5,16,17,18,19,20-octanol-2,6-inter-m-phenylene-15-cyclohexyl-13,14-didehydro-PGF1α] | 730 | 1160 | 0.8
O=C(O)Cc1ccccc1CC[C@@H]1[C@@H](C#C[C@@H](O)C2CCCCC2)[C@H](O)C[C@H]1Cl [Compound 51, 9-Deoxy-9β-chloro-3,4,5, 16, 17, 18, 19,20-octanol-2,6-inter-o-phenylene-15-cyclohexyl-13,14-didehydro-PGF1α] | 3420 | 5370 | 2.3
